Results as given in US12433292B2, “Method of production of controlled release silica nanoparticles for plant growth and/or defense enhancement” (ADOLPHE MERKLE INSTITUTE, UNIVERSITY OF FRIBOURG, priority 2019, dated 2025).

Tests used:
fungi and bacteria = assay: Alfalfa germination test: infection of seeds; type: in vivo, Medicago sativa; conditions: positive control
Description: (§1) Independent 60 seed to 800 seed germination tests were conducted following standard seed testing protocols. Briefly, the seeds were placed on filter paper wettened with the active ingredient solution or nanoparticle suspension under investigation and germinated for 5-10 days. The infection of seeds with fungi and bacteria, and the germination rates were determined by counting the infested and germinated seeds, respectively. The germination speed was assessed by counting all fully emerged cotyledons. Blanks (water only) and dissolved silicon control (orthosilicic acid solution) were run in parallel to all experiments in 3-8 replicates. As a positive control, a solution of the commercially available fungicide tebuconazole was run in parallel. The SiO2-NP exposed plants were embedded in low viscosity epoxy resin for transmission electron microscopy imaging.

[1] = system: Medicago sativa (alfalfa) seeds; assay: Alfalfa germination test
Description: as §1

`CC(C)(C)C(O)(CCc1ccc(Cl)cc1)Cn1cncn1` (stereo not drawn) [tebuconazole] was tested, and the effect on fungi (fungi and bacteria) was “killing all fungi”, the cotyledon emergence ([1]; 100 ppm) was “detrimental effects” and the germination ([1]; 100 ppm) was “detrimental effects”. For the same compound, the “adverse effects on germinating seeds” value ([1]; 4000 ppm) was “some adverse effects” and the “toxicity to the seed” value ([1]; same or comparable concentrations) was “exhibited toxicity to the seeds”.
For orthosilicic acid, the “overall effect on fungal infection, cotyledon emergence, seed vigor and biomass” value ([1]; germination and soil growth tests) was “performed equally or worse compared to the nanoparticles”.
